The text below walks through data of patent US7345091B2, “Carotenoid ether analogs or derivatives for the inhibition and amelioration of disease” (Cardax Pharmaceuticals, Inc., priority 2002, dated 2008).

The subject of one data set is C3H/10T1/2 cells. Briefly: Assembly of Cx43 into plaques (immunofluorescent staining). The class given is cell-based, mouse. The note with it: 1×10^-5 M in 1:2 EtOH/H2O, 4 days. How it is done:
In this experiment expression and assembly of Cx43 into plaques was assessed by immunofluorescent staining. Procedures were essentially as described in Zhang (1992). Briefly, confluent cultures of C3H/10T1/2 cells were grown on Permanox plastic 4-chamber slides (Nalge Nunc International, Naperville, Ill.) and treated for 4 days with: (1) the disodium salt disuccinate astaxanthin derivative XVI (statistical mixture of stereoisomers) dissolved in a 1:2 EtOH/H2O formulation; (2) the retinoid TTNPB at 1×10^−8 M in tetrahydrofuran as a positive control; or (3) 1:2 EtOH/H2O as a solvent control. Cells were fixed with −20° C. methanol overnight, washed in buffer, blocked in 1% bovine serum albumin (Sigma, St, Louis, Mo.) in PBS, and incubated with the rabbit polyclonal anti-Cx43 antibody (Zymed, San Francisco, Calif.) as in (2) above and detected with Alexa568 conjugated anti-rabbit secondary (Molecular Probes, Eugene, Oreg.). Slides were illuminated with […] light and images were acquired at a wavelength of 600 nm using the Zeiss Axioscope light microscope and a Roper Scientific cooled CCD camera. […] In cultures treated with solvent as control, such immunoreactive plaques were infrequent and were smaller than those detected in cells treated with the statistical mixture of stereoisomers of the disodium salt disuccinate astaxanthin derivative XVI or with TTNPB as positive control. […]

Data set [1] concerns male New Zealand white rabbits. Briefly: Experimental infarct size after parenteral administration. It counts as in vivo, rabbit. From the text:
The influence of parenteral administration of the disodium disuccinate astaxanthin derivative (XVI) on induced infarct size and induced levels of circulating C-reactive protein (CRP) in rabbits was investigated using the methods of Barrett et al. (2002) with slight modifications. The purpose of the current study was to investigate the ability of the disodium disuccinate astaxanthin derivative (XVI) to reduce inflammation as measured by CRP in the setting of experimental myocardial ischemia-reperfusion injury in the rabbit heart. […] Therefore, reduction of circulating CRP levels, together with the reduction(s) in infarct size previously noted with Cardax™ in rodents, would form a powerful anti-inflammatory therapeutic modality in the acute coronary syndrome setting.
In brief, male New Zealand white rabbits (2.25-2.5 kg) were used for the study. The acute phase inflammatory response was induced by subcutaneous injection of four aliquots (0.5 mL each) of 1% croton oil in corn oil beginning on the second day of pre-treatment with Cardax™. […]
At the completion of the reperfusion phase of the protocol, the hearts were removed and cannulated by the aorta on the Langendorff perfusion apparatus. […] Total area at risk was expressed as a percentage of the left ventricle. Infarct size was then expressed as a percentage of area at risk.

Data set [2] can be described thus: Liver accumulation of free astaxanthin after single oral dose. It counts as in vivo, male C57BL/6 mice. The method, then:
Free astaxanthin concentration was also determined, at the same time points as for plasma samples, in liver. Livers were removed from each animal in the pharmacokinetic study after sacrifice, and snap frozen in liquid nitrogen. Liver tissue was prepared for HPLC analysis as described (Jewell, 1999). Therefore, simultaneous examination of liver accumulation of free astaxanthin was performed at the same time points as the plasma analyses. Up to 300 mg of liver from each animal was snap frozen in liquid nitrogen. Tissue homogenization and extraction were performed with a mixture of chloroform/methanol/water, according to the methods of Jewell (1999). Non-esterified, free astaxanthin accumulation in liver was then evaluated by HPLC as described above for plasma samples.

Structures are written as SMILES. “Also recorded” adds a separate entry of the source. Where a name gives a salt, the structure may show the parent alone.

For `CC1=C(/C=C/C(C)=C/C=C/C(C)=C/C=C/C=C(C)/C=C/C=C(C)/C=C/C2=C(C)C(=O)C(OC(=O)CCC(=O)O)CC2(C)C)C(C)(C)CC(OC(=O)CCC(=O)O)C1=O` (racemic) [XVI, Disodium Salt of the Disuccinic Acid Ester of Astaxanthin], in the data set on C3H/10T1/2 cells, the “assembly of immunoreactive Cx43 into plaques” value was “increases assembly of Cx43; also recorded: exhibited assembly of immunoreactive Cx43 into plaques”. The “reductions in infarct size” value in data set [1] (50 mg/kg IV once per day for 4 days, 30 min occlusion / 180 min reperfusion) is reported as “approximately 55.4%”. Also, the “increase in infarct size reduction in rabbit vs rodents” value in data set [1] (same dose and identical pre-treatment schedule) is listed as 38%. This compound displayed an Oral clearance in data set [2] (Liver, free astaxanthin, single 500 mg/kg oral dose) of 15.856 L/h. In addition, the “liver vs plasma levels of free astaxanthin at each sampling interval” value in data set [2] (single 500 mg/kg oral gavage in emulsion) was “equal or greater to that in plasma”.
